A short description of data set [1]: RMS roughness of wax-coated surfaces by confocal microscopy. It counts as physicochemical. The following applies: for Roughness (RMS): spray coated on Si wafer, 5 seconds×4 cycles, wax solution; for RMS roughness growth: thermally-evaporated on silicon substrate. As to the method:
RMS roughness (Rq) is typically calculated according to the following formula: […]
Confocal microscopy (Leica DCM3D) was used for roughness measurements. Time-dependent measurements were performed on counterpart samples having non-fluorinated wax coatings that were used for XRD time-dependent measurements. In situ time-resolved confocal microscopy was used for observation of the change in surface roughness over a constant 100 μm×100 μm area for duration of 160 hours. A topographical image was collected every hour. These experiments encompassed the same duration and time intervals as the time-dependent XRD measurements hereinabove.
Similar time-dependent measurements were performed for samples coated with fluorinated wax, maintained at a temperature of 90° C., during 60 hours. These experiments were supported by time-dependent XRD measurements performed at 90° C. during 60 hours, with 1 hour time intervals.
(§1) Contact angles and RMS roughness were measured as described in Example 2 hereinabove.

A short description of data set [2]: Static contact angle (wettability) of wax-coated surfaces, Attension Theta tensiometer. The class given is physicochemical. Further details: C.A. Cyclohexane / C.A. hexadecane / C.A. Water / C.A. Glycerol / C.A. Ethylene Glycol / C.A. Benzyl Chloride / C.A. Clorobenzene: unit not given here. The following applies: for C.A. Ethylene Glycol: liquid Ethylene Glycol; for C.A. Glycerol: liquid Glycerol; for C.A. Water: liquid Water; for C.A. Benzyl Chloride: liquid Benzyl Chloride; for C.A. Clorobenzene: liquid Clorobenzene; for C.A. Cyclohexane: liquid Cyclohexane; for C.A. hexadecane: liquid hexadecane.
Excerpt: Typically, but not exclusively, in order to measure the static contact angle, a drop of liquid is formed on the tip of a hypodermic needle attached to a screw syringe. The syringe is fastened to a stand which reduces any irregularities that are produced by manual drop deposition. The substrate is then raised until it touches the drop using the Y control of the stage. The drop is the then brought into the field of view and onto the focal point of the microscope by x-y translation of the stage and image is captured. The static contact angle is calculated by methods known in the art. An exemplary methodology and system for measuring a static contact angle in described in Example s in the Examples section that follows.
The wettability of the surfaces was characterized using water contact angle (C.A.) measurements recorded with an Attension Theta tensiometer. The water wettability measurements were performed with a constant high-purity water drop volume of 7 μL.
Oil contact angles were determined for the following liquids: Glycerol, ethylene glycol, olive oil, benzyl chloride, clorobenzene, cyclohexane and hexadecane, using an Attension Theta tensiometer with approximately 8 μL liquid drops.
Time-dependent contact angle measurements were performed during a period of two weeks.
as §1

Another data set deals with B. cereus 407 biofilms. The data set is described as follows: Biofilm formation on wax-coated glass substrates, LIVE/DEAD staining, CLSM. The following applies: glass substrate with thermally evaporated wax, in comparison to control glass surface; FIGS. 7A-7E. The class given is cell-based, Bacillus cereus. As to the method:
Bacillus cereus 407 and ATCC 10987 stains were obtained from Michel Gohar's lab collection (INRA, France).
(§2) For biofilm generation, bacteria were grown to stationary phase in LB (Lysogeny broth) medium at 37° C. in shaking culture. The generated cultures were seeded (by dilution 1:100) into sterile polystyrene multidishes containing different substrates and inoculated into fresh media (37° C., 5 95% air/5% CO2 (v/v) statically without agitation.
(§3) To visualize the constructed biofilms, the substrates were removed from the wells, washed with PBS buffer and stained with FilmTracer™ LIVE/DEAD Biofilm Viability Kit (Molecular Probes, OR) according to the manufacturer's protocol. The stained samples were observed using an Olympus IX81 confocal laser scanning microscope (CLSM, Japan). Live cells were stained green, while dead cells were stained red. Fluorescence emission of the stained samples was measured using an Olympus IX81 CLSM equipped with 488-nm argon-ion and 543-nm helium-neon lasers.
(§4) Two different biofilm forming pathogenic bacteria, B. cereus (Gram positive) and P. aeruginosa (Gram negative), which are often encountered in clinical and industrial settings, were tested for their ability to form biofilm on glass substrates having thermally evaporated thereon the following wax materials: C24F50, C36H74, C40H82 and C44H90.

The next data set concerns P. aeruginosa biofilm. Described as above. The settings on record: glass substrate with thermally evaporated wax; FIGS. 8A-E. It counts as cell-based, Pseudomonas aeruginosa PA14. The procedure: Pseudomonas aeruginosa PA14 was obtained from Shlomo Sela's lab strain collection (Agricultural Research Organization, Israel).
as §2, §3, §4

Setting [3] is: spray coated on Si wafer, 5 seconds×4 cycles, wax solution.
Where [4] appears, read: thermally-evaporated wax on Silicon substrate.
Setting [5] is: thermally evaporated on silicon wafer, maintained at 90° C., 18 hr.
Where [6] appears, read: thermally evaporated on silicon wafer, maintained at 90° C., 20 hr.
The mark [7] stands for this setting: thermally evaporated on silicon wafer, maintained at 90° C., 22 hr.
[8] abbreviates: thermally evaporated on silicon wafer, maintained at 90° C., 30 hr.
The mark [9] stands for this setting: thermally evaporated on silicon wafer, maintained at 90° C., 40 hr.
Setting [10] is: thermally evaporated on silicon wafer, maintained at 90° C., 50 hr.
Where [11] appears, read: thermally evaporated on silicon wafer, maintained at 90° C., 60 hr.

The structures appear in SMILES notation.

For `FC(F)(F)C(F)(F)C(F)(F)C(F)(F)C(F)(F)C(F)(F)C(F)(F)C(F)(F)C(F)(F)C(F)(F)C(F)(F)C(F)(F)C(F)(F)C(F)(F)C(F)(F)F` [C15, perfluoropentadecane], the “Roughness (RMS)” value in data set [1] stood at 0.12 μm. In data set [2] (setting [3]), the “C.A. Ethylene Glycol” value is recorded as 59, the “C.A. Glycerol” value amounted to 110 and the “C.A. Water” value is given as 114.
As for `FC(F)(F)C(F)(F)C(F)(F)C(F)(F)C(F)(F)C(F)(F)C(F)(F)C(F)(F)C(F)(F)C(F)(F)C(F)(F)C(F)(F)C(F)(F)C(F)(F)C(F)(F)C(F)(F)C(F)(F)C(F)(F)C(F)(F)C(F)(F)F` [C20, perfluoroeicosane, reference compound], in data set [2] (setting [4]), the “C.A. Benzyl Chloride” value is reported as “Fully wetted”, the “C.A. Clorobenzene” value is “Fully wetted”, the “C.A. Cyclohexane” value is recorded as “Fully wetted” and the “C.A. Ethylene Glycol” value came out at 122. Besides, in data set [2] (setting [4]), the “C.A. Glycerol” value is recorded as 120, the “C.A. Water” value was found to be 128 and the C.A. hexadecane result is given as “Fully wetted”.
On to `FC(F)(F)C(F)(F)C(F)(F)C(F)(F)C(F)(F)C(F)(F)C(F)(F)C(F)(F)C(F)(F)C(F)(F)C(F)(F)C(F)(F)C(F)(F)C(F)(F)C(F)(F)C(F)(F)C(F)(F)C(F)(F)C(F)(F)C(F)(F)C(F)(F)C(F)(F)C(F)(F)C(F)(F)F` [C24, perfluorotetracosane], for which, in data set [1], the “Roughness (RMS)” value is on record as 0.12 μm. In data set [1] (thermally-evaporated fluorinated wax, at 90° C. after a 60 hour time period), the “surface roughness (R.M.S.)” value was 0.9 μm. The “surface roughness (R.M.S.), initial” value in data set [1] (thermally-evaporated fluorinated wax, before maintaining at 90° C.) is 0.7 μm. Besides, the RMS roughness growth entry in data set [1] (20 hours at 70° C.) is given as “about 0.06 μm”. In addition, the RMS roughness growth entry in data set [1] (20 hours at 80° C.) is given as “about 0.08 μm”. Besides, the RMS roughness growth result in data set [1] (maintained at 90° C.) is recorded as “about 0.4 μm”. In data set [2] (setting [3]), the “C.A. Ethylene Glycol” value is 100, the “C.A. Glycerol” value was 140 and the “C.A. Water” value amounted to 141. Moreover, in data set [2] (setting [5]), the “C.A. Ethylene Glycol 18 hr” value came out at 167, the “C.A. Glycerol 18 hr” value amounted to 163, the “C.A. Hexadecane 18 hr” value worked out at 122 and the “C.A. Water 18 hr” value is 160. Further, in data set [2] (setting [6]), the “C.A. Ethylene Glycol 20 hr” value turned out to be 159, the “C.A. Glycerol 20 hr” value worked out at 164, the “C.A. Hexadecane 20 hr” value amounted to 115 and the “C.A. Water 20 hr” value was 165. In addition, in data set [2] (setting [7]), the “C.A. Ethylene Glycol 22 hr” value is 155, the “C.A. Glycerol 22 hr” value worked out at 165, the “C.A. Hexadecane 22 hr” value stood at 118 and the “C.A. Water 22 hr” value is recorded as 161. Moreover, in data set [2] (setting [8]), the “C.A. Ethylene Glycol 30 hr” value was 160, the “C.A. Glycerol 30 hr” value worked out at 167, the “C.A. Hexadecane 30 hr” value came out at 119 and the “C.A. Water 30 hr” value was 168. Moreover, in data set [2] (setting [9]), the “C.A. Ethylene Glycol 40 hr” value amounted to 156, the “C.A. Glycerol 40 hr” value turned out to be 167, the “C.A. Hexadecane 40 hr” value turned out to be 124 and the “C.A. Water 40 hr” value is 168. For the same molecule, in data set [2] (setting [10]), the “C.A. Ethylene Glycol 50 hr” value was determined as 161, the “C.A. Glycerol 50 hr” value turned out to be 163, the “C.A. Hexadecane 50 hr” value is given as 123 and the “C.A. Water 50 hr” value turned out to be 163. For the same molecule, in data set [2] (setting [11]), the “C.A. Ethylene Glycol 60 hr” value is 166, the “C.A. Glycerol 60 hr” value came to 166, the “C.A. Hexadecane 60 hr” value is recorded as 117 and the “C.A. Water 60 hr” value is 167. The “time-dependent contact angle of water, glycerol, ethylene glycol and hexadecane” value in data set [2] (thermally evaporated on silicon wafer, room temperature, two-week period) was “slight variation of the measured contact angles”. For the same molecule, the “contact angle of olive oil drop” value in data set [2] (thermally-evaporated on silicon substrate, FIG. 3A insert) was “high contact angle”. In data set [2] (setting [4]), the “C.A. Benzyl Chloride” value is given as 139, the “C.A. Clorobenzene” value was 138, the “C.A. Cyclohexane” value turned out to be 112 and the “C.A. Ethylene Glycol” value is 171. In addition, in data set [2] (setting [4]), the “C.A. Glycerol” value is 172, the “C.A. Water” value was determined as 172 and the C.A. hexadecane is 112. For the same molecule, the “B. cereus biofilm formation on coated substrate” value (from here on “B. cereus biofilm formation”) with B. cereus 407 biofilms was “could not adhere successfully to form confluent biofilms”. The “P. aeruginosa biofilm formation on coated substrate” value in the data set on P. aeruginosa biofilm is on record as “substantially prevented the biofilm formation”.
In the case of `CCCCCCCCCCCCCCCCCCCCCCCCCCCCCCCCCCCC` [C36, hexatriacontane], the “Roughness (RMS)” value in data set [1] was 0.07-0.1 μm. In data set [2] (setting [3]), the “C.A. Ethylene Glycol” value stood at 58, the “C.A. Glycerol” value is on record as 64 and the “C.A. Water” value was 75. Besides, the “contact angle of a water drop” value in data set [2] (thermally-evaporated on gold surface, maintained at room temperature for a week) is recorded as 165 °. For the same molecule, in data set [2] (setting [4]), the “C.A. Benzyl Chloride” value is given as “Fully wetted”, the “C.A. Clorobenzene” value was “Fully wetted”, the “C.A. Cyclohexane” value was “Fully wetted” and the “C.A. Ethylene Glycol” value is on record as 121. Also, in data set [2] (setting [4]), the “C.A. Glycerol” value worked out at 133, the “C.A. Water” value was 171 and the C.A. hexadecane result is listed as “Fully wetted”. Moreover, the “B. cereus biofilm formation” value in the data set on B. cereus 407 biofilms is reported as “Less significant inhibition of biofilm formation”.
Turning to `CCCCCCCCCCCCCCCCCCCCCCCCCCCCCCCCCCCCCCCC` [C40, tetracontane], the “Roughness (RMS)” value in data set [1] is recorded as 0.06-0.09 μm. Also, in data set [2] (setting [3]), the “C.A. Ethylene Glycol” value turned out to be 62, the “C.A. Glycerol” value is given as 69 and the “C.A. Water” value is 85. In addition, in data set [2] (setting [4]), the “C.A. Benzyl Chloride” value is on record as “Fully wetted”, the “C.A. Clorobenzene” value is “Fully wetted”, the “C.A. Cyclohexane” value is “Fully wetted” and the “C.A. Ethylene Glycol” value is 112. Moreover, in data set [2] (setting [4]), the “C.A. Glycerol” value is reported as 144, the “C.A. Water” value came out at 167 and the C.A. hexadecane entry is “Fully wetted”. In addition, the “B. cereus biofilm formation” value in the data set on B. cereus 407 biofilms is listed as “could not adhere successfully to form confluent biofilms”.
`CCCCCCCCCCCCCCCCCCCCCCCCCCCCCCCCCCCCCCCCCCCC` [C44, tetratetracontane]: in data set [2] (setting [3]), the “C.A. Ethylene Glycol” value came to 60, the “C.A. Glycerol” value is 96 and the “C.A. Water” value is 96. Moreover, in data set [2] (setting [4]), the “C.A. Benzyl Chloride” value is recorded as “Fully wetted”, the “C.A. Clorobenzene” value is recorded as “Fully wetted”, the “C.A. Cyclohexane” value is given as “Fully wetted” and the “C.A. Ethylene Glycol” value is 103. In data set [2] (setting [4]), the “C.A. Glycerol” value is listed as 130, the “C.A. Water” value worked out at 161 and the C.A. hexadecane result was “Fully wetted”. The “B. cereus biofilm formation” value in the data set with B. cereus 407 biofilms was “could not adhere successfully to form confluent biofilms”. Further, the “P. aeruginosa biofilm formation on coated substrate” value in the data set with P. aeruginosa biofilm is “substantially prevented the biofilm formation”.
On to `CCCCCCCCCCCCCCCCCCCCCCCCCCCCCCCCCCCCCCCCCCCCCCCCCC` [C50, pentacontane], for which, in data set [2] (setting [4]), the “C.A. Benzyl Chloride” value was “Fully wetted”, the “C.A. Clorobenzene” value was “Fully wetted”, the “C.A. Cyclohexane” value is “Fully wetted” and the “C.A. Ethylene Glycol” value is 100. Moreover, in data set [2] (setting [4]), the “C.A. Glycerol” value is given as 111, the “C.A. Water” value stood at 151 and the C.A. hexadecane entry is recorded as “Fully wetted”.

These data come from patent US20220340764A1, “HYDROPHOBIC AND OLEOPHOBIC SURFACES AND USES THEREOF” (Technion Research & Development Foundation Limited, priority 2012, published 2022).
